In US20230321063A1, “COMPOSITIONS AND METHODS TO REDUCE NEUROINFLAMMATION” (Seattle Children's Hospital d/b/a Seattle Children's …, priority 2020, published 2023):

System: CNS lesions in Ndufs4(KO) mice
Test: Brain immunological staining: brainstem and cerebellar CNS lesions
Format: in vivo, mouse
Conditions: 300 mg/kg/day
Method: Brain immunological staining and microscopy. Brains were fixed for 48 hours in 10% formalin at 4° C. Following fixation, brains were moved to a cryoprotectant solution (30% sucrose, 1% DMSO, 100 μM glycine, 1×PBS, 0.45 μm filtered, pH 7.5), and stored for over 48 hours, until the fixed tissues sank to the bottom. Tissues were then placed in OCT media (Tissue-Tek OCT compound, Sakura 0004348-01), frozen in cryoblock holders on dry ice, and stored at −80° C. until sectioned for staining. Cryoblocks were cut at 50 μm thickness using a Leica CM30505 cryostat set at −40° C. Slices were moved to 1×PBS and stored at 4° C. until used for staining. Prior to staining, slices were mounted on slides and briefly dried to adhere.
Antibody staining was performed as follows: slides were first incubated in an antigen retrieval and permeabilization buffer (0.05% Triton X-100, 50 μM digitonin, 10 mM Tris-HCl, 1 mM EDTA, pH 9.0) at 60° C. overnight in a white-light LED illuminated box (to promote photobleaching of tissue autofluorescence). To reduce formaldehyde induced background fluorescence, slides were treated with sodium borohydride in ice cold PBS, added at 1 mg/mL immediately before incubation, on ice for 30 min, then moved to 10 mM glycine 1×PBS, pH 7.4, for 5 min at room temperature. Lipid background fluorescence was then blocked by incubating slides in 0.2 μm filtered Sudan Black B solution (5 mg/mL in 70% ethanol) overnight at room temperature. Slides were then rinsed twice, 5 min each, in 1×PBS. Excess fluid was wiped from the slide, and the tissue was circled using Liquid Blocker PAP pen (Fisher Scientific, NC9827128) to hold staining solutions. Slides were blocked for 15 min at room temperature in 1×PBS with 10% rabbit serum (Gibco, 16120-099) then stained overnight at 4° C. in a mixture of rabbit anti-IBA1-fluorochrome 635 conjugated (WAKO 013-26471) at 1:300, mouse anti-GFAP, Alexa555 conjugated (Cell Signaling, 3656S) at 1:300, and DAPI (Sigma, D9542) at 1 μg/mL. […]

SMILES: FC(F)(F)c1ccc(CNc2ccc(Cc3c[nH]c4ncc(Cl)cc34)cn2)cn1 [pexidartinib, 5-[(5-chloro-1H-pyrrolo[2,3-b]pyridin-3-yl)methyl]-N-[[6-(trifluoromethyl)pyridin-3-yl]methyl]pyridin-2-amine]
- gliosis (microgliosis and astrocytosis) at CNS lesion sites: completely prevented
- brainstem CNS lesions (immunohistochemistry): complete (as detected by immunohistochemistry) prevention
- cerebellar CNS lesions (immunohistochemistry): complete (as detected by immunohistochemistry) prevention
